Experimental data reported in patent publication US12428377B2, “Sodium-hydrogen exchanger 3 inhibitor compounds” (Eli Lilly and Company, priority 2019, dated 2025).
Several values for one entry are separate records, joined by “and”; a condition that tells them apart may be missing. Equal values may be shown once.

Tests used:
Type in all cases: in vivo, rat
male Sprague Dawley rats [1] = assay: Radiolabeled phosphate absorption in rats, Studies 1-3 (plasma radioactivity); settings: for Absorption (vs. vehicle control): mean ± SEM
Experimental: Effect of Example 2 in Combination with an NPT2b Inhibitor (Compound A) on Phosphate Absorption in Rats
NPT2b inhibitor dosing solutions: Compound A and poly-1-vinylpyrrolidone-co-vinyl acetate (PVP-VA, Sigma-Aldrich) are weighed into a bottle at a ratio of 30% Compound A and 70% PVP-VA by weight. A clear yellow solution is prepared by diluting the mixture in MeOH followed by the addition of 2 mol NaOH per mol Compound A using 5 N NaOH. The solution is spray dried by a stream of hot nitrogen and the solid dispersion powder is collected and then further dried in a vacuum oven. Doses for the sprayed dried solid dispersion (SDD) are expressed as active pharmaceutical ingredient (API) throughout.
To make the Compound A dosing solution, an appropriate amount of Compound A SDD is weighed in a vial and dissolved in water (10 mL/kg dosing volume). […] The subsequent solutions for lower doses are prepared by serial dilutions with water. PVP-VA at 7 mg/mL is used as a vehicle control.
NHE3 inhibitor dosing solutions: To make the Example 2 dosing solution, an appropriate amount of the compound is weighed in a vial and dissolved in 1% HEC (10 mL/kg dosing volume). […] The subsequent solutions for lower doses are prepared by serial dilutions with HEC.
To make the radiolabeled phosphate dosing solution, a 16.25 mM Na2HPO4, 0.9% saline, pH 7.4 solution is prepared and filtered using a sterile, 0.22 μm, polyethersulfone, Millex-GP Syringe Filter Unit (EMD Millipore). Radioactive phosphate (H3^33PO4, Perkin Elmer) is added at about 2.5 μCi per mL of the solution and filtered again.
Three separate studies are performed. In these studies, male Sprague Dawley rats, are randomized into groups with approximately equal mean body weights. Following an overnight fast, all the animals are dosed at 10 mL/kg with either vehicle, varying doses of Compound A (Study 1), varying doses of Example 2 (Study 2) or 1.2 mg/kg Compound A and varying doses of Example 2 (Study 3). 15 min later, radiolabeled phosphate is orally dosed in a 2 mL volume. 15 min later, blood is collected and plasma is prepared. Radioactivity (dpm) in 50 μL plasma is measured by scintillation counting and is used to calculate phosphate absorption. The results are normalized with the vehicle controls representing 100% absorption. The curves are fitted with nonlinear regression with variable slope using GraphPad Prism 6 to calculate the ED50 and Emax given in Table 7. […] No curve fit was performed for Compound A alone in Study 1.

male Sprague Dawley rats [2] = assay: Phosphate absorption 15 min after radiolabeled phosphate (Example 2, Compound A, combination); settings: Compound A 10 mg/kg, plasma 15 min after radiolabeled phosphate, P=0.013 versus vehicle control
Experimental: Effect of Example 2 in Combination with an NPT2b Inhibitor (Compound A) on Phosphate Absorption and Intestinal Phosphate Retention in Rats
(§1) The purpose of this study is to investigate in rats the effect of Example 2, Compound A, and an Example 2/Compound A combination on phosphate absorption 15 min after dosing the compounds and the phosphate retained in the intestine 4.25 h after dosing the compounds. The latter is a measure of the oral phosphate load which is absorbed over an extended period.
(§2) Two vehicles are used in this study: 1) 1% HEC and 2) 0.46% poly-1-vinylpyrrolidone-co-vinyl acetate in water (PVP-VA vehicle). The vehicle control group in this study receives a 1:1 combination of the two vehicles.
The Example 2, Compound A and phosphate dosing solutions are prepared similarly as described above, except the doses are 0.4 mg/kg for Example 2 and 10 mg/kg for Compound A and they are prepared at a concentration where they would be dosed in a 5 mL/kg volume. […]
Male Sprague Dawley rats are fasted 4 h and then administered appropriate vehicles, 10 mg/kg Compound A, 0.4 mg/kg Example 2, or a combination of both compounds. […] Radioactivity in plasma is measured by scintillation counting and used to calculate the inhibition of phosphate absorption. […] Statistical significance is determined by ANOVA with a Dunnett's comparison to the Example 2/Compound A combination using JMP 12.1.

male Sprague Dawley rats [3] = assay: Intestinal phosphate retention: percent radiolabeled dose recovered in gastrointestinal tract; settings: Compound A 10 mg/kg, 4 h after radiolabeled phosphate
Experimental: as §1, §2
The Example 2, Compound A and phosphate dosing solutions are prepared similarly as described above, except the doses are 0.4 mg/kg for Example 2 and 10 mg/kg for Compound A and they are prepared at a concentration where they would be dosed in a 5 mL/kg volume. The Example 2 and Compound A alone groups are mixed 1:1 with the vehicle of the other compound, while the Compound A and Example 2 are mixed 1:1 prior to dosing. The final dosing volume is 10 mL/kg in all cases.
4 h after the radiolabeled phosphate solution is dosed, stomach, small intestine, large intestine, and feces are collected, weighed and digested with 1N NaOH overnight at 37° C. Radioactivity in each fraction is measured by scintillation counting.
The percent dose recovered in gastrointestinal tract is defined as radioactivity recovered in stomach, small intestine, large intestine and feces compared to the amount dosed. Data is presented as mean±SEM with animal numbers equal to 8 for the groups. Statistical significance is determined by ANOVA with a Dunnett's comparison to the Example 2/Compound A combination using JMP 12.1.
The percent dose recovered in gastrointestinal tract data is further analyzed by a two-way ANOVA in JMP 12.1 to test for additivity of the effects of Example 2 and Compound A on inhibiting phosphate absorption. […] That is, the inhibitory effect of the combination is greater than the sum of the individual compound effects.

CC1(C)CN(C(=O)NCCCCO)CCN1Cc1cccc(C(=O)Nc2sc3c(c2C(=O)Nc2cc(F)c(CCc4ccc(C(=O)O)cc4)c(F)c2)CCCC3)c1 [Compound A, reference compound]
Absorption (vs. vehicle control) (male Sprague Dawley rats [1]; Study 1, rats, Compound A 0.01 mg/kg): 94.39 ± 7.88% | Absorption (vs. vehicle control) (male Sprague Dawley rats [1]; Study 1, rats, Compound A 0.1 mg/kg): 87.61 ± 6.08% | Absorption (vs. vehicle control) (male Sprague Dawley rats [1]; Study 1, rats, Compound A 1 mg/kg): 87.64 ± 7.26% | Absorption (vs. vehicle control) (male Sprague Dawley rats [1]; Study 1, rats, Compound A 10 mg/kg): 81.53 ± 5.50% | % Inhibition at the highest dose (phosphate absorption) (male Sprague Dawley rats [1]; Study 1, rats, Compound A highest dose tested (10 mg/kg)): 18% | Absorption (vs. vehicle control) (male Sprague Dawley rats [1]; Study 3, rats, Vehicle + Compound A 1.2 mg/kg): 71.00 ± 11.63% | Inhibition of phosphate absorption (male Sprague Dawley rats [2]): 35% | Percent Dose Recovered, Feces (male Sprague Dawley rats [3]): <0.1% | Percent Dose Recovered, Large Intestine (male Sprague Dawley rats [3]; mean ± SEM): 18.43 ± 2.03% | Percent Dose Recovered, Small Intestine (male Sprague Dawley rats [3]; mean ± SEM): 8.98 ± 0.48% | Percent Dose Recovered, Stomach (male Sprague Dawley rats [3]; mean ± SEM): 4.86 ± 1.13% | Percent Dose Recovered, Total (male Sprague Dawley rats [3]; mean ± SEM, 10 mg/kg): 32% and 32.27 ± 1.38%
